Reference: patent publication US20040105861A1, “Use of factor XIIIa inhibitors to treat atherosclerosis” (SmithKline Beecham Corporation, priority 1997, published 2004)

Target: purified human Factor XIIIa (Homo sapiens, UniProt P00488)
Details: 10 mM EDTA added in the presence of Factor XIIIa 30 U/ml; fibrinogen 100 μg/ml, Lp(a) 500 μg/ml, 37° C., 30 minutes to 6 hours
Method: To determine if Factor XIIIa crosslinks Lp(a) with fibrinogen, Factor XIIIa was incubated with Lp(a) and fibrinogen in solution and then analyzed for Lp(a)-fibrinogen crosslinking over a time course ranging from 30 minutes to 6 hours. Briefly, purified human fibrinogen (Calbiochem, San Diego, Calif.), at a final concentration of 100 μg/ml, was incubated with purified human Lp(a) (Enzyme Research Laboratories, South Bend, Ind.) at a final concentration of 500 μg/ml, in the presence of purified human Factor XIIIa (Enzyme Research Laboratories, South Bend, Ind.) at 30 U/ml. As controls, Factor XIIIa was either omitted from the reaction or 10 mM EDTA was added in the presence of Factor XIIIa to inhibit Factor XIIIa activity. The reactions were conducted at 37° C. in a buffer of 40 mM Tris, 0.15 M NaCl, 5 mM dithiolthreitol, and 10 mM CaC12, at pH 8.3. Factor XIII was preactivated to Factor XIIIa immediately before each experiment by incubating Factor XIII with thrombin at 3 U/ml in 40 mM Tris and 0. 15 M NaCl, at pH 8.3 for 1 hour at room temperature. The activation procedure was stopped by adding hirudin at 100 U/ml (Sigma) to inhibit the thrombin. […]
To identify the presence of Lp(a) within the immunoprecipitated complexes, samples were analyzed by western blot using an antibody to Lp(a). […]

Chain of purified human Factor XIIIa (P00488 39-732 limits assumed): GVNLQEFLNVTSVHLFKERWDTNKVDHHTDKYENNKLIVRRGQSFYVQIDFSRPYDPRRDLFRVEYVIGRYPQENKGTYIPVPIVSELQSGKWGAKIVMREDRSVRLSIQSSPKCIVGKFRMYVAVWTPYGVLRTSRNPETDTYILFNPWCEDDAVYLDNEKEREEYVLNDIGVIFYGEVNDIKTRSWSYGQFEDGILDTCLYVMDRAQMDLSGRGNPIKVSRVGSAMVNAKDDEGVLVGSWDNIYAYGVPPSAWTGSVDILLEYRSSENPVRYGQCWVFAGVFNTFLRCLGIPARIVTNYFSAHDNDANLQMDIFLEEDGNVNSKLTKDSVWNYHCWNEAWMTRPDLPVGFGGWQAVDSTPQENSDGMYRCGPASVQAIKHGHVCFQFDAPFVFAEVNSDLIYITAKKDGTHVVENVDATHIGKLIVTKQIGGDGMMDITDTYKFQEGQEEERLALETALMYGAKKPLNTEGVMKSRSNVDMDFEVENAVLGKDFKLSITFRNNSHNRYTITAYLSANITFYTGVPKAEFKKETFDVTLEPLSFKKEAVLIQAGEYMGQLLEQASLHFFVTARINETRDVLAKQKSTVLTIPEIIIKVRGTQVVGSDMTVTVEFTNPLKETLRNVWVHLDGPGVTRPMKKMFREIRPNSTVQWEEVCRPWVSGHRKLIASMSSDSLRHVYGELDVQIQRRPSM

Compound: O=C(O)CN(CCN(CC(=O)O)CC(=O)O)CC(=O)O [EDTA]
- Lp(a) crosslinked with fibrinogen (Lp(a) in anti-fibrinogen immunoprecipitated material, western blot): Lp(a) was not incorporated in the immunoprecipitated material
